Test results as given in publication PMC5131364, “Pharmacologic modulation of RORγt translates to efficacy in preclinical and translational models of psoriasis and inflammatory arthritis” (Scientific Reports, 2016).
Where two headings read alike, the source gives them in different places.

Key:
Format in all cases: cell-based
[1] = tested on: human iTreg cells co-cultured with responder CD4+ T cells; assay: Human inducible regulatory T cells suppressive function; details: iTreg generated in presence of 1 μM, CFSE
Method: 37 °C and 5% CO2 for 6 days. Cells were used for flow cytometry analysis of FOXP3+CD4+ T cells and RNA isolation to determine FOXP3 expression. The probe sets were purchased form Life technologies, FOXP3 […]
Human inducible regulatory T cells generation and suppressive function
To generate inducible regulatory T cells, naïve CD4 T cells was purified from PBMCs using naive CD4+ T cell isolation kit II, human (Miltenyi) and stimulated with anti‐CD3/anti‐CD28 antibodies plus IL‐2 and TGF‐β (10 ng/ml each, R&D system) in the presence or absence of 1µM JNJ‐54271074 . After 6‐7 days T cells were washed and Foxp3 expression was evaluated by FACS. […] After 4 days CFSE dilution was evaluated by FACS as an indication of responder T cell’s proliferation.
Supplementary Figure 1. […] Accumulated IL‐ 17A or IFNγ  was measured by ELISA.
Supplementary Figure 2. […] Total splenocytes were cultured with IL‐23 and IL‐2 in the presence of titrated JNJ‐54271074 for 4 days, and supernatants were measured for IL‐17A and IL‐22 by ELISA. IC50 was determined using Prism Graphpad.
Supplementary Figure 3. […] Cells were analyzed by flow cytometry for 17A+ and IL‐ 17A+/22+ population (A). […] Cells from DMSO or 1 µM JNJ‐54271074 treated wells were analyzed by flow cytometry for IFNγ+ and IL‐17A+ population (B) and IFNγ level in supernatants was […]

[2] = tested on: CD4+ T cells from draining lymph nodes restimulated with OVA; assay: In vivo mouse Th17 differentiation (OVA/CFA) and in vitro restimulation; details: 1 μM, OVA restimulation
Description: The following antibodies (anti-mouse or anti-human) were purchased from BD Biosciences (San Diego, CA) or eBioscience (San Diego, CA): anti-CD3-FITC (mouse 17A2 and human SK7), anti-CD4-allophycocyanin (APC), anti-CD4-PerCp, anti-CD4-FITC, anti-CD4-PE (mouse GK1.5 and human SK3), anti-CD44-PerCp (mouse IM7), anti-γδ TCR-FITC, anti-γδ TCR-PE (mouse GL3 and human B1), anti-CD62L-FITC (mouse MEL-14 and human SK11), anti-CD45RO-APC (human UCHL1), anti-CCR6-PE (human 11A9), anti-CD45-PerCp (mouse 30-F11). Human or mouse anti-IFNγ (mouse XMG1.2 and human 4S.B3), anti-TNFα (mouse MP6-XT22 and human MAB11), anti-IL-17A (mouse eBio17B7 and human eBio64DEC17), anti-IL-22 (mouse 1H8PWSR and human 22URTI), and anti-Foxp3 (mouse FJK-16s and human 36A/E7), all PE or APC conjugated, were purchased from eBioscience (San Diego, CA). Human and mouse APC conjugated CD1d tetramers pre-loaded with alpha-GalCer and negative controls were obtained from ProImmune. […] Cells were stained with fluorescence-labeled antibodies for surface marker, then fixed/permeabilized (eBioscience) and stained with antibodies for intracellular cytokines. […] The data were acquired on a FACS Calibur (BD Bioscience) and analyzed using FlowJo software (Tree Star, San Carlos, CA). […]

[3] = tested on: mouse splenic γδ T cells; assay: Mouse γδ+ T cell in vitro activation; details: for IC50: Mus musculus, T-cell, IL-1β/IL-23 plus anti-IFNγ, 65 hours, ELISA
Description: The following antibodies (anti-mouse or anti-human) were purchased from BD Biosciences (San Diego, CA) or eBioscience (San Diego, CA): anti-CD3-FITC (mouse 17A2 and human SK7), anti-CD4-allophycocyanin (APC), anti-CD4-PerCp, anti-CD4-FITC, anti-CD4-PE (mouse GK1.5 and human SK3), anti-CD44-PerCp (mouse IM7), anti-γδ TCR-FITC, anti-γδ TCR-PE (mouse GL3 and human B1), anti-CD62L-FITC (mouse MEL-14 and human SK11), anti-CD45RO-APC (human UCHL1), anti-CCR6-PE (human 11A9), anti-CD45-PerCp (mouse 30-F11). Human or mouse anti-IFNγ (mouse XMG1.2 and human 4S.B3), anti-TNFα (mouse MP6-XT22 and human MAB11), anti-IL-17A (mouse eBio17B7 and human eBio64DEC17), anti-IL-22 (mouse 1H8PWSR and human 22URTI), and anti-Foxp3 (mouse FJK-16s and human 36A/E7), all PE or APC conjugated, were purchased from eBioscience (San Diego, CA). Human and mouse APC conjugated CD1d tetramers pre-loaded with alpha-GalCer and negative controls were obtained from ProImmune. For intracellular staining cells were stimulated for 4 hours at 37 °C with PMA and ionomycin (0.5 μg/ml each) in the presence of brefeldin A and monensin or with leukocyte activation cocktail (BD Bioscience, San Diego, CA). Cells were stained with fluorescence-labeled antibodies for surface marker, then fixed/permeabilized (eBioscience) and stained with antibodies for intracellular cytokines. For Foxp3 staining cells were fixed/permeabilized using transcription factor buffer set (eBioscience). The data were acquired on a FACS Calibur (BD Bioscience) and analyzed using FlowJo software (Tree Star, San Carlos, CA).
Mouse γδ^+ T cells were isolated from splenocytes of C57BL/6N mice using TCR γδ^+ T Cell Isolation Kit (Miltenyl Biotec, Auburn, CA), following the manufacturer’s instructions. Cells were resuspended in culture medium and seeded in 96-well plates at 5 × 10^4 per well. […] Cells were incubated at 37 °C and 5% CO2 for 65 hours before sample collection. Supernatant samples were collected for measurement of IL-17A, IL-17F and IL-22 using R&D ELISA kits, according to manufacturer’s instructions. Cytokine-producing cells were analyzed through intracellular staining and flow cytometry analysis.

- IC50 ([3]; read-out: IC50, IL-17A production): 0.077 µM
- IC50 ([3]; read-out: IC50, IL-17F production): 0.054 µM
- IC50 ([3]; read-out: IC50, IL-22 production): 0.083 µM
SMILES: COc1nc2ccc([C@@](O)(c3ccc(C)nc3C)c3cnnn3C)cc2c(Cl)c1Cc1ccc(C(F)(F)F)cc1 [JNJ-54271074]
- Treg suppressive activity on T cell proliferation [1]: not affected
- IL-17A+ and IL-17A+ IL-22+ CD4+ T cells [2]: significantly suppressed
- IL-22 single positive cells [2]: no effect
- decrease of the percentage of IL-17A- and IL-17A/IL-22-producing cells ([3]; 0.1 μM): about 50%
